{"source": "patent US20250040543A1", "about": "“Preservative Composition” (ARXADA AG, priority 2021, published 2025)", "assay_in_all_cases": "MIC and Synergy Index (Kull) of two-component compositions", "assay_type_in_all_cases": "cell-based", "key": {"Staphylococcus aureus": {"test_system": "Staphylococcus aureus", "details": "Staphylococcus aureus, butyl levulinate alone, or its concentration in the mixture with Sodium benzoate; read-out: MIC (ppm) to inhibit growth: Butyl levulinate", "experimental": "(§1) A wide range of concentrations were tested against Pseudomonas aeruginosa, Staphylococcus aureus, Escherichia coli, and Candda albicans.\n(§2) The lowest concentration of each mixture or single compound which prevents an observable level of growth was determined to be the minimum inhibitory concentration (MIC) value.\n(§3) Serial dilutions of each mixture or single compound were prepared. Micro-organisms were inoculated into media: Nutrient Broth (bacteria) or Malt Extract Broth (yeast). The final concentrations of micro-organisms in media was approximately 10^5-6 CFU/ml. The inoculated media was introduced to each of the serial dilutions at a 1:1 ratio, and incubated at 30±1° C. for 24-48 hours.\n(§4) The MICs for each mixture was compared with the MIC of each single compound alone.\n(§5) Synergy was determined using the Kull equation (F. C. Kull et. al., “Mixtures of Quaternary Ammonium Compounds and Long-chain Fatty Acids as Antifungal Agents”, Appl Microbiol. 1961 November; 9(6): 538-541), which calculates a Synergy Index (SI) according the following equation:\n(§6) [formula] • wherein • QA=concentration of compound A in ppm, acting alone produced an end point, • Qa=concentration of compound A in ppm, in the mixture, which produced an end point, • QB=concentration of compound B in ppm, acting alone produced an end point, and • Qb=concentration of compound B in ppm, in the mixture, which produced an end point;\n(§7) In this study the end point is measured by the MIC."}, "Pseudomonas aeruginosa": {"test_system": "Pseudomonas aeruginosa", "experimental": "as §1, §2, §3, §4, §5, §6, §7"}, "Escherichia coli": {"test_system": "Escherichia coli", "experimental": "as §1, §2, §3, §4, §5, §6, §7"}}, "data": [{"smiles": "CCCCOC(=O)CCC(C)=O", "note": "[Butyl Levulinate, butyl levulinate]", "values": [{"measurement": "MIC", "setting": "Staphylococcus aureus", "result": 25000, "unit": "µg/mL"}, {"measurement": "MIC", "setting": "Pseudomonas aeruginosa; Pseudomonas aeruginosa, butyl levulinate alone, or its concentration in the mixture with Lactic Acid, read-out: MIC (ppm) to inhibit growth: Butyl levulinate", "result": 6250, "unit": "µg/mL"}, {"measurement": "MIC (ppm) to inhibit growth: Butyl levulinate", "setting": "Pseudomonas aeruginosa; butyl levulinate alone, or its concentration in the mixture with MGDA", "result": 6250, "unit": "ppm"}, {"measurement": "MIC (ppm) to inhibit growth: Butyl levulinate", "setting": "Pseudomonas aeruginosa; butyl levulinate alone, or its concentration in the mixture with Sodium pyrithione", "result": 6250, "unit": "ppm"}, {"measurement": "MIC", "setting": "Escherichia coli; Escherichia coli, butyl levulinate alone, or its concentration in the mixture with Sodium benzoate, read-out: MIC (ppm) to inhibit growth: Butyl levulinate", "result": 3120, "unit": "µg/mL"}, {"measurement": "MIC (ppm) to inhibit growth: Butyl levulinate", "setting": "Escherichia coli; butyl levulinate alone, or its concentration in the mixture with DHA", "result": 3125, "unit": "ppm"}]}]}
